The term pEC50 denotes −log10 of the EC50, conventionally taken in molar units.

These results are taken from patent US8022043B2, “Ceramide derivatives as modulators of immunity and autoimmunity” (Albert Einstein College of Medicine of Yeshiva University, priority 2004, dated 2011).

pEC50: −log10 of the molar value.

Assay [1] deals with Bulk splenocytes from C57BL/6 mice. The experiment in a line: Splenocyte proliferation assay (3H-thymidine incorporation). It is filed as cell-based. The settings on record: for pEC50: concentration giving 50% maximal response in proliferation of splenocyte cultures, 3H-thymidine incorporation. The procedure:
The results were obtained using a splenocyte proliferation assay according to the following procedure: Bulk splenocytes from C57BL/6 mice were plated at 300,000 per well in 96-well flat-bottom tissue culture plates with the indicated ceramide-like glycolipid diluted in complete medium to the concentrations shown. After 48 h at 37° C., the plate wells were pulsed with 20 microliters of medium containing 50 microCi/ml ^3H-thymidine and incubated for a further 18 h. Cell proliferation was estimated by harvesting pulsed cells onto 96-well filtermats and scintillation counting on a 1450 Microbeta Trilux instrument (Wallac/Perkin Elmer, Boston, Mass.).
For orientation: Dividing cells build labelled thymidine or BrdU into new DNA.

The test system is the same in assay [2]. The experiment in a line: Cytokine response of splenocyte cultures (IL-4 and IFNγ ELISA). It is filed as cell-based. The following applies: 500 nM glycolipid, 48 hours; for Cytokine Response IFNγ / Cytokine Response IL-4: culture supernatant ELISA, ND = below the reliable level for detection. The procedure: The cytokine response reported in Table 1 and FIG. 5C was determined by the following procedure: Bulk splenocytes from C57BL/6 mice were plated at 300,000 per well in 96-well flat-bottom tissue culture plates with ceramide-like glycolipids diluted to a concentration of 500 nM in 200 microliters complete medium. After 48 h at 37° C., 150 microliters of supernatant was removed for cytokine measurements. Supernatant levels of IL-4, and IFNγ were measured by standard enzyme-linked immunosorbent assay (ELISA), using capture and biotinylated detection antibody pairs (clones 11B11/BVD6-24G2-biotin, and R4-6A2/XMG1.2-biotin, respectively, from BD Pharmingen, San Diego, Calif.). […] Standards for IL-4 and IFNγ were from Peprotech (Rocky Hill, N.J.).

A further assay has as its system NK T cells. The experiment in a line: NK T cell activation screens (Example, FIG. 5 and Table 1). It is filed as cell-based. The following applies: see Example. The text has this:
Using these methods, we produced more than 60 novel amino substituted analogues of KRN7000. These were screened in a functional assay that assessed the ability of the compounds to activate NK T cell hybridomas in the presence of various types of cells expressing CD1d, or in the presence of recombinant CD1d proteins bound to the tissue culture plate surface (FIG. 5).

For assay [3], the system named is Bulk splenocytes from C57BL/6 mice. The experiment in a line: Cytokine response of splenocyte cultures (IL-4 and IFNγ ELISA). It is filed as cell-based. On the set-up: IL-4 levels compared with DB01-1: dose or concentration left out as unconfirmed. The settings on record: in vitro splenocyte cultures. A general note: An ELISA detects its analyte on a solid surface through an enzyme-linked reagent.

The subject of another assay is splenocyte cultures. The experiment in a line: Splenocyte cultures (DB03-6). Type of assay: cell-based.
The subject of another assay is NK T hybridoma DN32.D3. The experiment in a line: Murine NK T cell hybridoma stimulation assay (IL-2 release), HeLa.hCD1d as APC. The settings on record: presented by HeLa cells. Type of assay: cell-based, mouse. The procedure: The ability of the compounds to activate NK T cell hybridomas in the presence of various types of cells expressing CD1d reported in FIG. 5A was determined using a murine NK T cell hybridoma stimulation assay. CD1d-transfected RMA-S cells were plated at 50,000 cells/well in flat-bottom tissue culture plates in 100 microliters complete medium containing varying concentrations of ceramide-like glycolipids for 6 h at 37° C. The plates were then centrifuged (430 g, 3 min), and cells washed with PBS three times. Fifty thousand NKT hybridoma cells (clone DN3A4.1-2) were then added in 100 microliters of medium for a 12 h stimulation. Cell-free supernatants were collected at the end of incubation and assayed for IL-2 by standard capture ELISA. Relative potencies of the ceramide-like glycolipids were calculated from the reciprocal effective concentrations at half-maximal response (1/EC50), and expressed as units by normalization to the observed potency for KRN7000.
IL-2 production by NK T hybridoma DN32D3 in response to eight selected ceramide-like glycolipids, was determined using three different cell types as antigen presenting cells. RMA-S.mCD1d are a mouse lymphoma line that has been transfected to express murine CD1d. JAWS II is a mouse dendritic cell line that naturally expresses mouse CD1d. HeLa.hCD1d is a human cervical carcinoma cell line that has been transfected to express human CD1d. […]

The subject of assay [4] is splenocytes from NZB/W F1 mice. The experiment in a line: Cytokine induction in vitro with splenocytes from NZB/W F1 mice. Type of assay: cell-based.

Take `CCCCCCCCCCCCCC[C@@H](O)[C@@H](O)[C@H](CO[C@H]1O[C@H](CO)[C@H](O)[C@H](O)[C@H]1O)NC(=O)Cc1ccc(OCC)cc1` [YTCO3-59]: the negative logarithm of the EC50 (pEC50) in assay [1] was 10.00. In addition, in assay [2], the “IL-4/IFNγ ratio divided by this ratio for DB01-1 (value in parentheses)” value (“IL-4/IFNγ ratio divided by this ratio” below) is reported as 309.4, the “ratio IL-4/IFNγ” value is 8.045, the “Cytokine Response IFNγ” value came out at 0.22 ng/mL and the “Cytokine Response IL-4” value came out at 1.77 ng/mL. Also, the effectiveness of compound result with NK T cells was “Particularly effective”.
In turn, `CCCCCCCCCCCCCC[C@@H](O)[C@@H](O)[C@H](CO[C@H]1O[C@H](CO)[C@H](O)[C@H](O)[C@H]1O)NC(=O)Cc1cccc2ccccc12` [YTCO3-56] gave a pEC50 in assay [1] of 7.94. Further, in assay [2], the “IL-4/IFNγ ratio divided by this ratio” value stood at 0.7, the “ratio IL-4/IFNγ” value came to 0.019, the “Cytokine Response IFNγ” value worked out at 11.79 ng/mL and the “Cytokine Response IL-4” value was found to be 0.22 ng/mL. Moreover, the effectiveness of compound result with NK T cells was “Particularly effective”.
In the case of `CCCCCCCCCCCCCCCCCCCCCCCC(=O)N[C@@H](COC1OC(CO)C(O)C(O)C1O)[C@H](O)[C@H](O)CCCCCCCCCCCCCC` (stereo partly shown) [DB02-1], the CD1d-dependent proliferation result in assay [1] (FIG. 5D) is on record as “stimulation of CD1d-dependent proliferation”. The “IL-4 levels compared with DB01-1” value in assay [3] is “nearly equivalent”. Also, the “IFNγ levels compared with DB01-1” value in assay [3] (all concentrations) is “markedly lower”.
Regarding `CC/C=C\C/C=C\C/C=C\C/C=C\C/C=C\CCCC(=O)N[C@@H](COC1OC(CO)C(O)C(O)C1O)[C@H](O)[C@H](O)CCCCCCCCCCCCCC` (stereo partly shown) [DB03-6], in the assay on splenocyte cultures, the IL-2 induction entry is given as “minimal IL-2 induction”, the “IL-4 relative to IFNγ” value is recorded as “apparent enhancement of IL-4 relative to IFNγ” and the agonist activity result is “agonist”.
Turning to `CCCCCCCCCCCCCC[C@@H](O)[C@@H](O)[C@H](COC1OC(CO)C(O)C(O)C1O)NC(=O)Cc1ccc(F)cc1` (stereo partly shown) [YTC03-30], the “potency greater than KRN7000” value in the assay with NK T hybridoma DN32.D3 was “at least 100 fold”.
With `CCCCCCCCCCCCCC[C@@H](O)[C@@H](O)[C@H](CO[C@H]1O[C@H](CO)[C@H](O)[C@H](O)[C@H]1O)NC(=O)Cc1ccc(Br)cc1` [YTCO3-47], the pEC50 in assay [1] was 8.12. Also, in assay [2], the “IL-4/IFNγ ratio divided by this ratio” value amounted to 0.4, the “ratio IL-4/IFNγ” value is 0.011, the “Cytokine Response IFNγ” value amounted to 19.63 ng/mL and the “Cytokine Response IL-4” value was determined as 0.21 ng/mL. The effectiveness of compound result in the assay with NK T cells was “Particularly effective”.
Regarding `CCCCCCCCCCCCCC[C@@H](O)[C@@H](O)[C@H](COC1OC(CO)C(O)C(O)C1O)NC(=O)Cc1ccc(OC)c(OC)c1` (stereo partly shown) [YTC03-24], the “IL-4 induction relative to IFNγ” value in assay [4] was “enhanced IL-4 induction relative to IFNγ”.
Regarding `CCCCCCCCCCCCCC[C@@H](O)[C@@H](O)[C@H](CO[C@H]1O[C@H](CO)[C@H](O)[C@H](O)[C@H]1O)NC(=O)C(c1ccccc1)C(C)CC` (stereo partly shown) [YTCO3-60], the pEC50 in assay [1] was 7.96. Besides, in assay [2], the “IL-4/IFNγ ratio divided by this ratio” value was 0.8, the “ratio IL-4/IFNγ” value was found to be 0.022, the “Cytokine Response IFNγ” value stood at 8.18 ng/mL and the “Cytokine Response IL-4” value is 0.18 ng/mL. The effectiveness of compound result in the assay with NK T cells is on record as “Particularly effective”.
With `CCCCCCCCCCCCCC[C@@H](O)[C@@H](O)[C@H](COC1OC(CO)C(O)C(O)C1O)NC(=O)CCCCCC` (stereo partly shown) [YTC03-25], the “IL-4 induction relative to IFNγ” value in assay [4] is given as “enhanced IL-4 induction relative to IFNγ”. Besides, the effectiveness of compound entry with NK T cells was “Particularly effective”.
